Experimental data published in patent publication US20230303577A1, “TEMOZOLOMIDE ANALOGS AND METHODS OF USE” (St. John's Cancer Institute, priority 2020, published 2023).
Like-named read-outs stand apart in the source and are kept apart here.

Key:
U251 Resistant = test: AlamarBlue cell viability, U251 TMZ resistant; format: cell-based; conditions: Homo sapiens, U-251; 72 hours
Method: (§1) Cells were seeded in 96-well plates. The day after, cells were treated with various concentrations of temozolomide or TP3. Cell viability was measured by AlamarBlue™ cell viability reagent after 72 hours, considering the control level of cells to be 100%.

U251 Parent (Sensitive) = test: AlamarBlue cell viability, U251 parent (TMZ sensitive); format: cell-based; conditions: Homo sapiens, U-251; 72 hours
Method: as §1

U87MG Parent (Sensitive) = test: AlamarBlue cell viability, U87MG parent (TMZ sensitive); format: cell-based; conditions: Homo sapiens, U-87 MG; 72 hours
Method: as §1

T98G cells = test: Cell Titer Glo viability of T98G cells with or without O6-BG pretreatment; format: cell-based; conditions: Homo sapiens
Method: T98G cells, which express MGMT, were treated with TMZ or test compounds with or without 3, 6, or 24 hours of pretreatment with 100 μM of O^6-benzylguanine (O^6-BG; a pseudo-substrate of MGMT that quenches the cellular store of enzyme). T98G cell lysates were probed with anti-MGMT antibody and then with anti-a tubulin (FIG. 4). In a separate experiment, TMZ or test compounds were added to T98G cells with or without 5-6 hours of pretreatment with 100 μM O^6-BG. Cell viability was measured using the Cell Titer Glo assay after 3 days of incubation and IC50 values were determined (Table 3).

P-gp = test: Bidirectional Caco-2 permeability / P-gp efflux assay; format: in vitro ADME; conditions: human; for Papp A→B: read-out: Papp (AB) p-gp Inhibitor (−); for Papp B→A: read-out: Papp (BA) p-gp Inhibitor (−)
Method: Permeability of the compounds was evaluated in the bidirectional Caco-2 assay including identification of P-glycoprotein substrate (Pgp-mediated transport). Verapamil was used as a p-gp inhibitor. The apparent permeability (Papp) was calculated using the following equation:
Papp=VA/Area×Time×[drug]acc/[drug]initial,d
Permeability of the compounds was evaluated in the bidirectional Caco-2 assay as described in Example 11 (Table 15).

GBM8 = test: AlamarBlue cell viability, GBM8 patient-derived cell line; format: cell-based; conditions: 72 h, read-out: IC50, 72 h
Method: (§2) The effect of selected compounds on glioma cells viability was determined. The cells were plated at 2000 cells/well in 96 well plates. The day after, cells were treated with various concentrations of temozolomide or VMY-TP analogs.

[1] = Pre-formulation testing: solubility, pH and stability in vehicles; format: physicochemical
Method: Two formulations for TP3 and TMZ were prepared (Tables 10 and 11). Pre-formulation testing was in volumes of 100 μl-250 μl, and should be confirmed with larger volumes. Mice were dosed at 20 mg/kg of TMZ and TP3 using formulation 2 orally and brain and plasma samples were collected at 0, 0.5, 1, 3, 6 and 12 h timepoints and the concentration was measured using LC-MS and calculate PK parameters using standard equation. The stability profile (FIGS. 9A and 9B) and release kinetics profiles (FIGS. 10A and 10B) were compared. Single dose oral brain to plasma pharmacokinetic parameters were determined with Formulation 2 (Table 12).

[2] = BBB permeability, cassette intravenous dosing; format: in vivo, male CD-1 mice; conditions: cassette IV 5 mg/kg; for % Brain / % Plasma: 5 min; for concentration at 5 min / Kp at 5 min: male, CD-1, mouse; for concentration at 5 min: 10% DMSO in PBS; for Kp at 5 min: brain/plasma
Method: BBB permeability of the compounds was tested in male CD-1@IGS mice using cassette intravenous dosing (Table 7 and FIGS. 6A and 6B). There were three animals in each group, given a dose of 5 mg/kg formulated in 10% DMSO in PBS (v/v) for 5 minutes. The endpoint was quantifying the parent compound using LC-MS/MS. Plasma samples (50 μl) were immediately mixed with 25 μl of H3PO4 (8.5%). Then 225 μl of internal standard (IS; 400 ng/ml meldonium in methanol) was added. After mixing by pipetting and centrifuging for 4 min at 6000 rpm, 2 μl of each supernatant was injected into LC-MS/MS system. Brain samples (100 mg±1 mg) were immediately mixed with 100 μl H3PO4 (25%) and zirconium oxide beads (115 mg±5 mg). Then 400 μl of IS solution was added and samples were disperse using a bullet blender homogenizer for 30 seconds at speed 8. The samples were centrifuged for 4 min at 14,000 rpm and 2 μl of each supernatant was injected into LC-MS/MS system.

U87MG Resistant = test: AlamarBlue cell viability, U87MG TMZ resistant; format: cell-based; conditions: Homo sapiens, U-87 MG; 72 hours
Method: as §1

[3] = Metabolic stability in mouse liver microsomes; format: in vitro ADME; conditions: for microsomal CLint: mouse, liver microsomes
Method: Metabolic stability of the compounds was also determined in mouse liver microsomes at five time points over 60 minutes, using HPLC-MS. Liver microsomes, as vesicles of the hepatocyte endoplasmic reticulum, contain membrane phase I enzymes namely CYPs, flavine-containing monooxygenases (FMO), esterases, amidases, and epoxide hydrolases, and also the phase II enzymes such as UGTs. For the catalytic activity of both phase I and II enzymes, addition of exogenous cofactors such as NADPH for CYPs and FMO, and UDPGA/alamethicin for UGTs is necessary.

T98G = test: cells; conditions: Homo sapiens, 72 h
Method: as §2
(§3) Activity of TP-RGD was assessed in glioma cell cultures, as described in Example 11.

U87 = test: cells; conditions: Homo sapiens, U-87 MG, 72 h
Method: as §2, §3

U251 = test: cells; conditions: Homo sapiens, U-251, 72 h
Method: as §2, §3

[4] = Caco-2, without verapamil, read-out: Efflux Ratio BA/AB p-gp Inhibitor (−)
[5] = 2.0 mg/mL in 10% DMA + 15% Solutol HS15 + 10% PEG 400 + 10% PG + 55% of 15% (w/v) Captisol
[6] = read-out: Intrinsic clearance (Clint)
[7] = 2.0 mg/mL in 10% DMA + 10% Tween 80 + 15% PEG 400 + 15% PG + 50% of 15% (w/v) Captisol
[8] = 2.0 mg/mL in 10% DMA + 10% Tween 80 + 15% PEG 400 + 15% PG + 50% of 25% (w/v) Captisol
[9] = 4.0 mg/mL in 5% DMA + 10% Tween 80 + 10% PEG 400 + 10% PG + 65% of 50% (w/v) Captisol
[10] = 4.0 mg/mL in 10% DMA + 10% Tween 80 + 10% PEG 400 + 10% PG + 60% of 50% (w/v) Captisol

**Q.** What does the source list for `Cn1nnc2c(C(N)=O)ncn2c1=O` [TMZ, temozolomide]?
**A.** IC50 (U251 Resistant): 180 µM; IC50 (U251 Parent (Sensitive)): 70 µM; IC50 (U87MG Parent (Sensitive)): 310 µM; IC50 (T98G cells; 5-6 h pretreatment with 100 μM O6-BG, 3 days, read-out: IC50 With O^6-BG pretreatment): > 1000 µM; IC50 (T98G cells; 3 days, read-out: IC50 Without O^6-BG pretreatment): > 1000 µM; efflux ratio (P-gp; Caco-2, Caco-2 permeability, P-gp efflux ratio, Table 15, read-out: Efflux Ratio): 1.04; efflux ratio (P-gp; [4]): 1; Papp A→B (P-gp; Caco-2, without verapamil): 20.2 ×10⁻⁶ cm/s; Papp B→A (P-gp; Caco-2, without verapamil): 21 ×10⁻⁶ cm/s; IC50 (GBM8; GBM8, MGMT −, Table 2): 45 µM; Remarks (solubility) [1, 5]: Soluble; Stability (0-4 h) ([1]; Formulation 2, 2 mg/ml): Stable; Stability (0-4 h) ([1]; Formulation 3, 2 mg/ml): Stable; % Brain [2]: 7%; % Plasma [2]: 93%; concentration at 5 min ([2]; brain, read-out: Brain Conc.): 1290 ng/g; Kp at 5 min [2]: 0.23; concentration at 5 min ([2]; plasma, read-out: Plasma Conc): 5540 ng/mL; IC50 (U87MG Resistant): > 1000 µM; Clearance Classification (Low <8.6; High >48) [3]: Moderate; microsomal CLint [3, 6]: 15 µL/min/mg; % remaining (1 h) With co-factors [3]: 65%; % remaining (1 h) Without co-factors [3]: 72%; IC50 (T98G; read-out: IC50, 72 h, T98G, MGMT +++, Table 14): > 600 µM; IC50 (T98G; read-out: IC50, 72 h, T98G, MGMT +, Table 2): 1140 µM; IC50 (U87; read-out: IC50, 72 h, U87, MGMT −, Table 2): 208 µM; IC50 (U87; read-out: IC50, 72 h, U87MG, MGMT −, Table 14): 440 µM; IC50 (U251; read-out: IC50, 72 h, U251, MGMT −, Table 2): 898 µM; IC50 (U251; read-out: IC50, 72 h, U251, MGMT −, Table 14): 383 µM

**Q.** What does the source list for `CCCCCCNC(=O)c1ncn2c(=O)n(C)nnc12` [TP3, N-hexyl-3-methyl-4-oxo-3,4-dihydroimidazo[5,1-d][1,2,3,5]tetrazine-8-carboxamide]?
**A.** IC50 (U251 Resistant): 63 µM; IC50 (U251 Parent (Sensitive)): 71 µM; IC50 (U87MG Parent (Sensitive)): 250 µM; IC50 (T98G cells; read-out: IC50 With O^6-BG pretreatment): 675 µM; IC50 (T98G cells; read-out: IC50 Without O^6-BG pretreatment): 1050 µM; efflux ratio (P-gp; [4]): 0.6; Papp A→B (P-gp; Caco-2, without verapamil): 30.7 ×10⁻⁶ cm/s; Papp B→A (P-gp; Caco-2, without verapamil): 17 ×10⁻⁶ cm/s; IC50 (GBM8): 2 µM; Remarks (solubility) ([1]; 2.0 mg/mL in 5% DMA + 10% Tween 80 + 10% PEG 400 + 10% PG + 65% of 15% (w/v) Captisol): Not Soluble; Remarks (solubility) ([1]; 2.0 mg/mL in 10% DMA + 10% Tween 80 + 10% PEG 400 + 10% PG + 60% Normal saline): Not Soluble; pH ([1]; 2.0 mg/mL in 10% DMA + 10% Tween 80 + 10% PEG 400 + 10% PG + 60% of 15% (w/v) Captisol (100 μL)): ~6; Remarks (solubility) ([1]; 2.0 mg/mL in 10% DMA + 10% Tween 80 + 10% PEG 400 + 10% PG + 60% of 15% (w/v) Captisol (100 μL, from 20 mg/mL DMA stock)): Soluble; Remarks (solubility) ([1]; 2.0 mg/mL in 10% DMA + 10% Tween 80 + 10% PEG 400 + 10% PG + 60% of 15% (w/v) Captisol (250 μL)): Not Soluble; Remarks (solubility) ([1]; 2.0 mg/mL in 10% DMA + 10% Tween 80 + 10% PEG 400 + 10% PG + 60% of 15% (w/v) HPβCD): Not Soluble; Remarks (solubility) [1, 7]: Soluble; pH [1, 7]: ~6; Remarks (solubility) [1, 8]: Soluble; pH [1, 8]: ~6; Remarks (solubility) [1, 5]: Soluble; Remarks (solubility) [1, 9]: Soluble; pH [1, 9]: ~6; Remarks (solubility) ([1]; 4.0 mg/mL in 5% DMA + 10% Tween 80 + 10% PEG 400 + 10% PG + 65% of 50% (w/v) HPβCD): Not Soluble; Remarks (solubility) ([1]; 4.0 mg/mL in 10% DMA + 5% Tween 80 + 15% PEG 400 + 15% PG + 50% of 25% (w/v) Captisol): Not Soluble; Remarks (solubility) ([1]; 4.0 mg/mL in 10% DMA + 5% Tween 80 + 85% Normal saline): Not Soluble; Remarks (solubility) ([1]; 4.0 mg/mL in 10% DMA + 10% Tween 80 + 10% PEG 400 + 10% PG + 60% Normal saline): Not Soluble; Remarks (solubility) [1, 10]: Soluble; pH [1, 10]: ~6; Remarks (solubility) ([1]; 4.00 mg/mL in 25% of DMSO + 75% Normal Saline): Not Soluble; Stability (0-4 h) ([1]; Formulation 2, 2 mg/ml): Stable; pH ([1]; Formulation 2, 2 mg/ml): 4.81; Stability (0-4 h) ([1]; Formulation 3, 2 mg/ml): Stable; pH ([1]; Formulation 3, 2 mg/ml): 5.66; % Brain [2]: 20%; % Plasma [2]: 80%; concentration at 5 min ([2]; brain, read-out: Brain Conc.): 2080 ng/g; Kp at 5 min [2]: 0.71; concentration at 5 min ([2]; plasma, read-out: Plasma Conc): 2920 ng/mL; IC50 (U87MG Resistant): 280 µM; microsomal CLint ([3]; read-out: Clearance Classification (Low <8.6; High >48)): > 48 µL/min/mg; microsomal CLint [3, 6]: 358 µL/min/mg; % remaining (1 h) With co-factors [3]: 0%; % remaining (1 h) Without co-factors [3]: 80%; IC50 (T98G; read-out: IC50, 72 h): 1260 µM; IC50 (U87; read-out: IC50, 72 h): 399 µM; IC50 (U251; read-out: IC50, 72 h): 397 µM
